Several values for one entry are separate records, joined by “and”; a condition that tells them apart may be missing. Equal entries are not always repeated.
Target: Gamma-aminobutyric acid receptor subunit alpha-1 (Rattus norvegicus, UniProt P62813)
Sequence (P62813 whole entry): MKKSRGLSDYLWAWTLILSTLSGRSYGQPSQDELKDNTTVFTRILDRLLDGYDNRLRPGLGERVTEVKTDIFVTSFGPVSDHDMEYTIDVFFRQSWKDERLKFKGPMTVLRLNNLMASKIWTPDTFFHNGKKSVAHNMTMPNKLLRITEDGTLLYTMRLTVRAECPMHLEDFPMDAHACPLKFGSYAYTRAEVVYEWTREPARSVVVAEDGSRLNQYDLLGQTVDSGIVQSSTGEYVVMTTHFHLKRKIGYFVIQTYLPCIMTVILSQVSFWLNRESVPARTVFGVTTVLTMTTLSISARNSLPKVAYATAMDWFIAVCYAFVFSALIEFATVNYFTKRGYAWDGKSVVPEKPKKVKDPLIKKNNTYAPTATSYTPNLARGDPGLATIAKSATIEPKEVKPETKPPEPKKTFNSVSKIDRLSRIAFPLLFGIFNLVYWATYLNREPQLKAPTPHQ

| SMILES | Ki |
| --- | --- |
| CCOC(=O)c1cc2c(cn1)[nH]c1ccccc12 | 2920 nM |
| OCCN(CCO)c1nc(N2CCCCC2)c2nc(N(CCO)CCO)nc(N3CCCCC3)c2n1 [Dipyridamine] | 87.9 nM and 162 nM |
